Key:
[1] = tested on: rat retinal ganglion cells; experiment: Menadione-induced retinal ganglion cell death, low-molecular ALK3 inhibitors (Example 2); type: cell-based; conditions: 6 μM menadione; for dose dependence of cell death inhibitory effect: 100 nM to 10 μM K02288, 100 nM to 1 μM LDN-193189; for cell death inhibitory effect compared to the group treated with menadione alone / protection of cells from retinal ganglion cell death induced by menadione: 18 hours
Experimental: Rat retinal ganglion cells were isolated in the same manner as in Example 1. In the experimental system (FIG. 2A) of K02288 treatment, three rats were used; whereas, in the experimental system (FIG. 2B) of LDN-193189 treatment, two rats were used.
Retinal ganglion cells were suspended in RGC culture medium and seeded in the wells of a 96-well plate at a density of 1×10^4 cells/well and cultured at 37° C. under a 5% CO2 atmosphere for 24 hours. Twenty four hours later, the medium was removed. To a medium for a menadione reaction, 6 μM menadione and ALK3 inhibitors, i.e., K02288 (Tocris Bioscience) or LDN-193189 (MedChemExpress) (PLOS ONE 2013 8 (4) e62721) were added in accordance with the constitutions of individual groups. DMSO was added to a non K02288 treatment group or a non LDN-193189 treatment group, (a group treated with menadione alone). The cells were incubated at 37° C. for 18 hours and thereafter stained by use of LIVE/DEAD Viability/Cytotoxicity Kit (Thermo Fisher Scientific Inc.). Three photographs per well were taken by use of IncuCyte S3 live cell analysis system (Essen Bioscience) and analyzed. Data was calculated as the ratio of the number of survival cells relative to a total number of dead cells and survival cells. The RGC culture medium and medium for a menadione reaction used herein are the same as those used in Example 1.
Constitutions of groups (a group treated with K02288: n=8, a group treated with LDN-193189: n=6)
Control group: menadione was absent
A group treated with menadione alone: menadione and DMSO were added
A group treated with K02288 (3 groups: 100 nM, 1 μM, 10 μM): menadione and K02288 were added
A group treated with LDN-193189 (2 groups: 100 nM, 1 μM): menadione and LDN-193189 were added.

[2] = tested on: rat retinal ganglion cells; experiment: Menadione-induced retinal ganglion cell death, antibody/K02288 treatment (Example 1); type: cell-based; conditions: 6 μM menadione, 18 hours, vs Normal IgG treatment group, n=3, FIG. 1C
Experimental: The retina was taken out from each of 7 days-old SD rats (13 rats) (Japan SLC Co., Ltd.) and retinal cells were dispersed by Dissociation Kit-Postnatal Neurons (Miltenyi Biotec). Thereafter, retinal ganglion cells (RGC) were isolated from other retinal cells by use of Retinal Ganglion Cell Isolation Kits (Miltenyi Biotec).
The retinal ganglion cells were suspended in RGC culture medium, seeded in the wells of a 96-well plate at a density of 2×10^4 cells/well and cultured at 37° C. under a 5% CO2 atmosphere for 24 hours. Twenty four hours later, the medium was removed. To a medium for a menadione reaction, 6 μM menadione, Normal rabbit IgG (Santa Cruz Biotechnology, Inc.), an anti-ALK3 antibody (Anti-BMPR1A antibody, Abcam plc.), an anti-ALK4 antibody (anti-Activin A receptor Type IB antibody, Abcam plc.) and an ALK3 inhibitor, i.e., K02288 (Tocris Bioscience) (PLOS ONE 2013 8 (4) e62721) were added in accordance with the constitutions of individual groups (described later) and incubation was performed at 37° C. for 18 hours. […] Three photographs per well were taken by IncuCyte S3 live cell analysis system (Essen Bioscience) and analyzed. Data was calculated as the ratio of the number of survival cells relative to a total number of dead cells and survival cells. […]

retinal ganglion cells = conditions: mouse retina, Non Patent Literature 1; cited from earlier work
[3] = 1 μM test compound, FIGS. 2A and 2B

COc1cc(-c2cc(-c3cccc(O)c3)cnc2N)cc(OC)c1OC [K02288, 3-[6-amino-5-(3,4,5-trimethoxyphenyl)-3-pyridinyl]-phenol]
dose dependence of cell death inhibitory effect [1]: cell death inhibitory effect in a dose-dependent manner
cell death inhibitory effect compared to the group treated with menadione alone [1, 3]: significant cell death inhibitory effect
protection of cells from retinal ganglion cell death induced by menadione [1]: exerted an effect to protect cells
cell death inhibitory effect compared to the group treated with menadione alone ([1]; 10 μM test compound, FIG. 2A): significant cell death inhibitory effect
suppression of retinal ganglion cell death (ratio of survival cells to total cells) [2]: cell death was significantly suppressed

c1ccc2c(-c3cnn4cc(-c5ccc(N6CCNCC6)cc5)cnc34)ccnc2c1 [LDN-193189, 4-[6-(4-piperazin-1-yl-phenyl)-pyrazolo[1,5-α]pyrimidin-3-yl]-quinoline]
dose dependence of cell death inhibitory effect [1]: cell death inhibitory effect in a dose-dependent manner
cell death inhibitory effect compared to the group treated with menadione alone [1, 3]: significant cell death inhibitory effect
protection of cells from retinal ganglion cell death induced by menadione [1]: exerted an effect to protect cells

B1: BMP4: a kind of BMP (bone morphogenetic protein) (protein, UniProt P12644 293-408, looked up)
Bone morphogenetic protein 4: SPKHHSQRARKKNKNCRRHSLYVDFSDVGWNDWIVAPPGYQAFYCHGDCPFPLADHLNSTNHAIVQTLVNSVNSSIPKACCVPTELSAISMLYLDEYDKVVLKNYQEMVVEGCGCR
effect on retinal ganglion cell death induced by NMDA (retinal ganglion cells): suppressed

B2: Noggin: a BMP inhibitor (naturally occurring protein) (protein, UniProt Q13253 28-232, looked up)
Noggin: QHYLHIRPAPSDNLPLVDLIEHPDPIFDPKEKDLNETLLRSLLGGHYDPGFMATSPPEDRPGGGGGAAGGAEDLAELDQLLRQRPSGAMPSEIKGLEFSEGLAQGKKQRLSKKLRRKLQMWLWSQTFCPVLYAWNDLGSRFWPRYVKVGSCFSKRSCSVPEGMVCKPSKSVHLTVLRWRCQRRGGQRCGWIPIQYPIISECKCSC
effect on retinal ganglion cell death induced by NMDA (retinal ganglion cells): accelerated

Reference: patent publication US12427147B2, “Retinal ganglion cell death inhibitor” (SENJU PHARMACEUTICAL CO., LTD., priority 2018, dated 2025)
